Measurements published in ChEMBL document CHEMBL1806455, “Synthesis, activity and pharmacokinetics of novel antibacterial 15-membered ring macrolones” (Eur J Med Chem, 2011).
Values after ≈ are worked out from the molar mass of the structure shown.

Tests used:
Type in all cases: functional
[1] = test system: Staphylococcus aureus; experiment: Antibacterial activity against inducible macrolide-lincosamide-streptogramin B resistant Staphylococcus aureus 90256 by broth microdilution method
[2] = test system: Streptococcus pneumoniae; experiment: Antibacterial activity against efflux-mediated macrolide-resistant Streptococcus pneumoniae Ci137 by broth microdilution method
[3] = test system: Streptococcus pyogenes; experiment: Antibacterial activity against efflux-mediated macrolide-resistance Streptococcus pyogenes 2 Finland by broth microdilution method
[4] = test system: Haemophilus influenzae; experiment: Antibacterial activity against Haemophilus influenzae ATCC 49247 by broth microdilution method
[5] = test system: Streptococcus pneumoniae; experiment: Antibacterial activity against constitutive macrolide, lincosamide, streptogramin-resistant Streptococcus pneumoniae 58 spain by broth microdilution method
[6] = test system: Streptococcus pneumoniae; experiment: Antibacterial activity against inducible macrolide-resistant, constitutive lincosamide, streptogramin-resistant Streptococcus pneumoniae 134 GR M by broth microdilution method
[7] = test system: Staphylococcus aureus; experiment: Antibacterial activity against efflux-mediated macrolide-resistant Staphylococcus aureus PK1 by broth microdilution method
[8] = test system: Moraxella catarrhalis; experiment: Antibacterial activity against Moraxella catarrhalis ATCC 23246 by broth microdilution method
[9] = test system: Staphylococcus aureus; experiment: Antibacterial activity against constitutive macrolide, lincosamide, streptogramin-resistant Staphylococcus aureus PK2 by broth microdilution method
[10] = test system: Streptococcus pyogenes; experiment: Antibacterial activity against macrolide, lincosamide, streptogramin-resistant Streptococcus pyogenes 166 GR-Micro by broth microdilution method
[11] = test system: Streptococcus pyogenes; experiment: Antibacterial activity against inducible macrolide-lincosamide-streptogramin B resistant Streptococcus pyogenes Finland 11 by broth microdilution method
[12] = test system: Streptococcus pneumoniae; experiment: Antibacterial activity against erythromycin-sensitive Streptococcus pneumoniae SP030 by broth microdilution method
[13] = test system: Streptococcus pyogenes; experiment: Antibacterial activity against erythromycin-sensitive Streptococcus pyogenes 3565 by broth microdilution method
[14] = test system: Staphylococcus aureus; experiment: Antibacterial activity against erythromycin-sensitive Staphylococcus aureus ATCC 13709 by broth microdilution method

Compound | MIC [1] [mg/L] | MIC [2] [mg/L] | MIC [3] [mg/L] | MIC [4] [mg/L] | MIC [5] [mg/L] | MIC [6] [mg/L] | MIC [7] [mg/L] | MIC [8] [mg/L] | MIC [9] [mg/L] | MIC [10] [mg/L] | MIC [11] [mg/L] | MIC [12] [mg/L] | MIC [13] [mg/L] | MIC [14] [mg/L]
CC[C@H]1OC(=O)[C@H](C)[C@@H](O[C@H]2C[C@@](C)(OC)[C@@H](OC(=O)CCOCCOCCNc3ccc4c(c3)c(=O)c(C(=O)O)cn4C3CC3)[C@H](C)O2)[C@H](C)[C@@H](O[C@@H]2O[C@H](C)C[C@H](N(C)C)[C@H]2O)[C@](C)(O)C[C@@H](C)CN(C)[C@H](C)[C@@H](O)[C@]1(C)O | 0.5 (≈ 0.44 µM) | ≤ 0.125 | ≤ 0.125 | 0.5 (≈ 0.44 µM) | ≤ 0.125 | ≤ 0.125 | ≤ 0.125 | 0.25 (≈ 0.22 µM) | 16 (≈ 14.1 µM) | ≤ 0.125 | ≤ 0.125 | ≤ 0.125 | ≤ 0.125 | ≤ 0.125
CC[C@H]1OC(=O)[C@H](C)[C@@H](O[C@H]2C[C@@](C)(OC)[C@@H](OC(=O)CCOCCNc3cc4c(=O)c(C(=O)OCOCCOC)cn(C5CC5)c4cc3Cl)[C@H](C)O2)[C@H](C)[C@@H](O[C@@H]2O[C@H](C)C[C@H](N(C)C)[C@H]2O)[C@](C)(O)C[C@@H](C)CN(C)[C@H](C)[C@@H](O)[C@]1(C)O | 2 (≈ 1.65 µM) | ≤ 0.125 | ≤ 0.125 | 8 (≈ 6.59 µM) | 0.25 (≈ 0.206 µM) | ≤ 0.125 | 2 (≈ 1.65 µM) | 8 (≈ 6.59 µM) | > 64 | ≤ 0.125 | ≤ 0.125 | ≤ 0.125 | ≤ 0.125 | 1 (≈ 0.824 µM)
CC[C@H]1OC(=O)[C@H](C)[C@@H](O[C@H]2C[C@@](C)(OC)[C@@H](OC(=O)CCOCCNc3ccc4c(c3)c(=O)c(C(=O)OC(C)C)cn4C3CC3)[C@H](C)O2)[C@H](C)[C@@H](O[C@@H]2O[C@H](C)C[C@H](N(C)C)[C@H]2O)[C@](C)(O)C[C@@H](C)CN(C)[C@H](C)[C@@H](O)[C@]1(C)O | 16 (≈ 14.1 µM) | ≤ 0.125 | ≤ 0.125 | 4 (≈ 3.53 µM) | ≤ 0.125 | ≤ 0.125 | 8 (≈ 7.06 µM) | 4 (≈ 3.53 µM) | > 64 | ≤ 0.125 | ≤ 0.125 | ≤ 0.125 | ≤ 0.125 | 0.5 (≈ 0.441 µM)
CC[C@H]1OC(=O)[C@H](C)[C@@H](O[C@H]2C[C@@](C)(OC)[C@@H](O)[C@H](C)O2)[C@H](C)[C@@H](O[C@@H]2O[C@H](C)C[C@H](N(C)C)[C@H]2O)[C@](C)(O)C[C@@H](C)CN(C)[C@H](C)[C@@H](O)[C@]1(C)O [AZITHROMYCIN] | > 64 | 8 (≈ 10.7 µM) | 8 (≈ 10.7 µM) | 1 (≈ 1.34 µM) | > 64 | > 64 | 32 (≈ 42.7 µM) | ≤ 0.125 | > 64 | > 64 | 16 (≈ 21.4 µM) | ≤ 0.125 | ≤ 0.125 | 0.5 (≈ 0.668 µM)
CC[C@H]1OC(=O)[C@H](C)[C@@H](O[C@H]2C[C@@](C)(OC)[C@@H](OC(=O)CCOCCOc3cc4c(=O)c(C(=O)OC(C)C)cn(C5CC5)c4cc3Cl)[C@H](C)O2)[C@H](C)[C@@H](O[C@@H]2O[C@H](C)C[C@H](N(C)C)[C@H]2O)[C@](C)(O)C[C@@H](C)CN(C)[C@H](C)[C@@H](O)[C@]1(C)O | 4 (≈ 3.42 µM) | ≤ 0.125 | ≤ 0.125 | 2 (≈ 1.71 µM) | 0.25 (≈ 0.214 µM) | 0.5 (≈ 0.428 µM) | 4 (≈ 3.42 µM) | 0.5 (≈ 0.428 µM) | > 64 | 0.5 (≈ 0.428 µM) | ≤ 0.125 | ≤ 0.125 | ≤ 0.125 | 1 (≈ 0.856 µM)
CC[C@H]1OC(=O)[C@H](C)[C@@H](O[C@H]2C[C@@](C)(OC)[C@@H](OC(=O)CCOCCNc3ccc4c(c3)c(=O)c(C(=O)OCCN3CCCCC3)cn4C3CC3)[C@H](C)O2)[C@H](C)[C@@H](O[C@@H]2O[C@H](C)C[C@H](N(C)C)[C@H]2O)[C@](C)(O)C[C@@H](C)CN(C)[C@H](C)[C@@H](O)[C@]1(C)O | 4 (≈ 3.33 µM) | ≤ 0.125 | ≤ 0.125 | 8 (≈ 6.65 µM) | ≤ 0.125 | ≤ 0.125 | 1 (≈ 0.832 µM) | 1 (≈ 0.832 µM) | > 64 | ≤ 0.125 | ≤ 0.125 | ≤ 0.125 | ≤ 0.125 | 0.25 (≈ 0.208 µM)
CC[C@H]1OC(=O)[C@H](C)[C@@H](O[C@H]2C[C@@](C)(OC)[C@@H](OC(=O)CCOCCNc3cc4c(=O)c(C(=O)OC(C)C)cn(C5CC5)c4cc3Cl)[C@H](C)O2)[C@H](C)[C@@H](O[C@@H]2O[C@H](C)C[C@H](N(C)C)[C@H]2O)[C@](C)(O)C[C@@H](C)CN(C)[C@H](C)[C@@H](O)[C@]1(C)O | 2 (≈ 1.71 µM) | ≤ 0.125 | ≤ 0.125 | 2 (≈ 1.71 µM) | ≤ 0.125 | ≤ 0.125 | 2 (≈ 1.71 µM) | – | > 64 | ≤ 0.125 | ≤ 0.125 | ≤ 0.125 | ≤ 0.125 | 0.5 (≈ 0.428 µM)
CC[C@H]1OC(=O)[C@H](C)[C@@H](O[C@H]2C[C@@](C)(OC)[C@@H](OC(=O)CCOCCNc3cc4c(=O)c(C(=O)OCCN5CCCC5)cn(C5CC5)c4cc3Cl)[C@H](C)O2)[C@H](C)[C@@H](O[C@@H]2O[C@H](C)C[C@H](N(C)C)[C@H]2O)[C@](C)(O)C[C@@H](C)CN(C)[C@H](C)[C@@H](O)[C@]1(C)O | 1 (≈ 0.818 µM) | ≤ 0.125 | ≤ 0.125 | 4 (≈ 3.27 µM) | ≤ 0.125 | ≤ 0.125 | ≤ 0.125 | ≤ 0.125 | > 64 | ≤ 0.125 | ≤ 0.125 | ≤ 0.125 | ≤ 0.125 | 0.25 (≈ 0.204 µM)
CC[C@H]1OC(=O)[C@H](C)[C@@H](O[C@H]2C[C@@](C)(OC)[C@@H](OC(=O)CCOCCNc3ccc4c(c3)c(=O)c(C(=O)O)cn4C3CC3)[C@H](C)O2)[C@H](C)[C@@H](O[C@@H]2O[C@H](C)C[C@H](N(C)C)[C@H]2O)[C@](C)(O)C[C@@H](C)CN(C)[C@H](C)[C@@H](O)[C@]1(C)O | 0.5 (≈ 0.458 µM) | ≤ 0.125 | ≤ 0.125 | 1 (≈ 0.916 µM) | ≤ 0.125 | 0.25 (≈ 0.229 µM) | 1 (≈ 0.916 µM) | 0.5 (≈ 0.458 µM) | 32 (≈ 29.3 µM) | ≤ 0.125 | ≤ 0.125 | ≤ 0.125 | ≤ 0.125 | 0.5 (≈ 0.458 µM)
CCC(=O)CNC(=O)COC(=O)c1cn(C2CC2)c2ccc(NCCOCCC(=O)O[C@H]3[C@H](C)O[C@@H](O[C@H]4[C@H](C)[C@@H](O[C@@H]5O[C@H](C)C[C@H](N(C)C)[C@H]5O)[C@](C)(O)C[C@@H](C)CN(C)[C@H](C)[C@@H](O)[C@](C)(O)[C@@H](CC)OC(=O)[C@@H]4C)C[C@@]3(C)OC)cc2c1=O | 16 (≈ 13.1 µM) | ≤ 0.125 | ≤ 0.125 | 4 (≈ 3.28 µM) | ≤ 0.125 | ≤ 0.125 | 8 (≈ 6.57 µM) | – | > 64 | ≤ 0.125 | ≤ 0.125 | ≤ 0.125 | ≤ 0.125 | 1 (≈ 0.821 µM)
CCCOC(=O)c1cn(C2CC2)c2ccc(NCCOCCC(=O)O[C@H]3[C@H](C)O[C@@H](O[C@H]4[C@H](C)[C@@H](O[C@@H]5O[C@H](C)C[C@H](N(C)C)[C@H]5O)[C@](C)(O)C[C@@H](C)CN(C)[C@H](C)[C@@H](O)[C@](C)(O)[C@@H](CC)OC(=O)[C@@H]4C)C[C@@]3(C)OC)cc2c1=O | 4 (≈ 3.53 µM) | ≤ 0.125 | ≤ 0.125 | 2 (≈ 1.76 µM) | ≤ 0.125 | ≤ 0.125 | 2 (≈ 1.76 µM) | – | > 64 | ≤ 0.125 | ≤ 0.125 | ≤ 0.125 | ≤ 0.125 | 0.5 (≈ 0.441 µM)
